This experiment deals with MV-4-11 cells. Nature of the experiment: Gene expression microarray analysis (Affymetrix PrimeView) and GSEA. Conditions: MV-4-11 cells, 48 hours. The class given is cell-based, human. The arrangement: RFU PODN (11730768_x_at) / Fold change /veh PODN (11730768_x_at) / RFU LINC00158 (11744669_a_at) / Fold change /veh LINC00158 (11744669_a_at) / RFU DUSP10 (11751237_a_at) / Fold change /veh DUSP10 (11751237_a_at) / RFU ID3 (11757404_x_at) / Fold change /veh ID3 (11757404_x_at) / RFU PLEKHG5 (11737974_s_at) / Fold change /veh PLEKHG5 (11737974_s_at) / RFU LRRC4B (11730491_at) / Fold change /veh LRRC4B (11730491_at) / RFU GIMAP4 (11747438_a_at) / Fold change /veh GIMAP4 (11747438_a_at) / RFU KRT8 (11758183_x_at) / Fold change /veh KRT8 (11758183_x_at) / RFU CNN1 (11734310_a_at) / Fold change /veh CNN1 (11734310_a_at) / RFU VPS37D (11726825_at) / Fold change /veh VPS37D (11726825_at) / RFU C10orf10 (11716522_x_at) / Fold change /veh C10orf10 (11716522_x_at) / RFU KIR2DL2 /// KIR2DL4 /// KIR2DL5A /// KIR2DL5B /// KIR2DS1 /// KIR2DS2 /// KIR2DS3 /// KIR2DS4 /// KIR3DL3 /// KIR3DL3 /// KIR3DS1 (11738374_at) / Fold change /veh KIR2DL2 /// KIR2DL4 /// KIR2DL5A /// KIR2DL5B /// KIR2DS1 /// KIR2DS2 /// KIR2DS3 /// KIR2DS4 /// KIR3DL3 /// KIR3DL3 /// KIR3DS1 (11738374_at) / RFU C1QL1 (11718748_at) / Fold change /veh C1QL1 (11718748_at) / RFU TMPRSS4 (11747572_a_at) / Fold change /veh TMPRSS4 (11747572_a_at) / RFU HAMP (11756126_x_at) / Fold change /veh HAMP (11756126_x_at) / RFU RNFT2 (11725882_a_at) / Fold change /veh RNFT2 (11725882_a_at) / RFU NR4A2 (11747474_a_at) / Fold change /veh NR4A2 (11747474_a_at) / RFU ABCC12 (11746883_a_at) / Fold change /veh ABCC12 (11746883_a_at) / RFU TMEM136 (11760407_x_at) / Fold change /veh TMEM136 (11760407_x_at) / RFU CLDN22 /// WWC2 (11732394_at) / Fold change /veh CLDN22 /// WWC2 (11732394_at) / RFU HLA-DPB1 (11760878_x_at) / Fold change /veh HLA-DPB1 (11760878_x_at) / RFU SPINT1 (11716480_a_at) / Fold change /veh SPINT1 (11716480_a_at) / RFU GAP43 (11754022_s_at) / Fold change /veh GAP43 (11754022_s_at) / RFU A4GNT (11735810_at) / Fold change /veh A4GNT (11735810_at) / RFU PRB3 (11715151_x_at) / Fold change /veh PRB3 (11715151_x_at) / RFU TUBB4B (11761932_at) / Fold change /veh TUBB4B (11761932_at) / RFU CAPN14 (11732068_a_at) / Fold change /veh CAPN14 (11732068_a_at) / RFU TMCC2 (11721928_a_at) / Fold change /veh TMCC2 (11721928_a_at) / RFU IRGQ (11745062_a_at) / Fold change /veh IRGQ (11745062_a_at) / RFU FAM174B (11720279_a_at) / Fold change /veh FAM174B (11720279_a_at) / RFU TMPRSS4 (11748680_a_at) / Fold change /veh TMPRSS4 (11748680_a_at) / RFU FAM212B (11763350_a_at) / Fold change /veh FAM212B (11763350_a_at) / RFU PLEKHG5 (11743358_a_at) / Fold change /veh PLEKHG5 (11743358_a_at) / RFU ZSCAN30 (11745921_a_at) / Fold change /veh ZSCAN30 (11745921_a_at) / RFU CMKLR1 (11741424_a_at) / Fold change /veh CMKLR1 (11741424_a_at) / RFU LOC101060620 /// MAPK8IP1 (11723275_at) / Fold change /veh LOC101060620 /// MAPK8IP1 (11723275_at) / RFU SPTSSB (11747773_x_at) / Fold change /veh SPTSSB (11747773_x_at) / RFU PRSS12 (11739890_at) / Fold change /veh PRSS12 (11739890_at) / RFU BIN1 (11741810_x_at) / Fold change /veh BIN1 (11741810_x_at) / RFU WNT11 (11732464_a_at) / Fold change /veh WNT11 (11732464_a_at) / RFU C10orf10 (11716521_a_at) / Fold change /veh C10orf10 (11716521_a_at) / RFU C5orf56 (11738089_at) / Fold change /veh C5orf56 (11738089_at) / RFU CYB561 (11721691_x_at) / Fold change /veh CYB561 (11721691_x_at) / RFU ANKRD19P (11752326_a_at) / Fold change /veh ANKRD19P (11752326_a_at) / RFU OR2T12 /// OR2T33 /// OR2T8 (11738714_s_at) / Fold change /veh OR2T12 /// OR2T33 /// OR2T8 (11738714_s_at) / RFU VCAN (11748164_a_at) / Fold change /veh VCAN (11748164_a_at) / RFU JSRP1 (11732532_at) / Fold change /veh JSRP1 (11732532_at) / RFU KRTAP10-11 (11738290_x_at) / Fold change /veh KRTAP10-11 (11738290_x_at) / RFU MYO3A (11730013_a_at) / Fold change /veh MYO3A (11730013_a_at) / RFU EBF3 (11725865_a_at) / Fold change /veh EBF3 (11725865_a_at) / RFU CAMK2N1 (11719241_x_at) / Fold change /veh CAMK2N1 (11719241_x_at) / RFU C5orf56 (11738088_a_at) / Fold change /veh C5orf56 (11738088_a_at) / RFU OLFML3 (11715873_a_at) / Fold change /veh OLFML3 (11715873_a_at) / RFU LOC100653217 /// NTM (11731650_a_at) / Fold change /veh LOC100653217 /// NTM (11731650_a_at) / RFU MAPK11 (11762145_a_at) / Fold change /veh MAPK11 (11762145_a_at) / RFU FIZ1 (11724087_x_at) / Fold change /veh FIZ1 (11724087_x_at) / RFU OASL (11726364_x_at) / Fold change /veh OASL (11726364_x_at) / RFU SOX15 (11748057_x_at) / Fold change /veh SOX15 (11748057_x_at) / RFU CD79A (11719716_a_at) / Fold change /veh CD79A (11719716_a_at) / RFU HIST1H1D (11736915_at) / Fold change /veh HIST1H1D (11736915_at) / RFU CASKIN2 (11723855_a_at) / Fold change /veh CASKIN2 (11723855_a_at) / RFU LOC730098 (11760151_x_at) / Fold change /veh LOC730098 (11760151_x_at) / RFU OR4N2 (11742367_at) / Fold change /veh OR4N2 (11742367_at) / RFU PRRT2 (11749266_a_at) / Fold change /veh PRRT2 (11749266_a_at) / RFU SNX32 (11753110_a_at) / Fold change /veh SNX32 (11753110_a_at) / RFU CDHR5 (11726645_a_at) / Fold change /veh CDHR5 (11726645_a_at) / RFU RCAN1 (11760418_a_at) / Fold change /veh RCAN1 (11760418_a_at) / RFU FAM167A (11723789_a_at) / Fold change /veh FAM167A (11723789_a_at) / RFU FAM26E (11764081_at) / Fold change /veh FAM26E (11764081_at) / RFU ISYNA1 (11749810_s_at) / Fold change /veh ISYNA1 (11749810_s_at) / RFU ACY1 (11761880_at) / Fold change /veh ACY1 (11761880_at) / RFU 11764098_at / Fold change /veh 11764098_at / RFU SAMD14 (11745864_x_at) / Fold change /veh SAMD14 (11745864_x_at) / RFU NPB (11741838_a_at) / Fold change /veh NPB (11741838_a_at) / RFU TMPRSS6 (11731388_a_at) / Fold change /veh TMPRSS6 (11731388_a_at) / RFU KRTAP10-2 (11738614_at) / Fold change /veh KRTAP10-2 (11738614_at) / RFU ARHGAP8 /// PRR5-ARHGAP8 (11727945_x_at) / Fold change /veh ARHGAP8 /// PRR5-ARHGAP8 (11727945_x_at) / RFU KRTAP5-7 /// NADSYN1 (11734609_at) / Fold change /veh KRTAP5-7 /// NADSYN1 (11734609_at) / RFU RASL12 (11751679_a_at) / Fold change /veh RASL12 (11751679_a_at) / RFU CDKN2B (11736163_a_at) / Fold change /veh CDKN2B (11736163_a_at) / RFU PRF1 (11729649_at) / Fold change /veh PRF1 (11729649_at) / RFU, ZNF638 /// ZNF638-IT1 / Fold change vs veh, ZNF638 /// ZNF638-IT1 / RFU, PANK3 / Fold change vs veh, PANK3 / RFU, SH3YL1 / Fold change vs veh, SH3YL1 / RFU, ZEB2 / Fold change vs veh, ZEB2 / RFU, NRIP1 / Fold change vs veh, NRIP1 / RFU, PTTG1IP / Fold change vs veh, PTTG1IP / RFU, CAPN2 / Fold change vs veh, CAPN2 / RFU, MED14 / Fold change vs veh, MED14 / RFU, SNORA58 / Fold change vs veh, SNORA58 / RFU, C1orf63 / Fold change vs veh, C1orf63 / RFU, LRRFIP1 / Fold change vs veh, LRRFIP1 / RFU, NDUFAF7 / Fold change vs veh, NDUFAF7 / RFU, SLC12A2 / Fold change vs veh, SLC12A2 / RFU, IBTK / Fold change vs veh, IBTK / RFU, ESF1 / Fold change vs veh, ESF1 / Fold change vs veh, TMEM50B / RFU, TAOK1 / Fold change vs veh, TAOK1 / RFU, ACBD3 / Fold change vs veh, ACBD3 / RFU, TMA16 / Fold change vs veh, TMA16 / RFU, RWDD3 / Fold change vs veh, RWDD3 / RFU, BCAT1 / Fold change vs veh, BCAT1 / RFU, EDEM3 / Fold change vs veh, EDEM3 / RFU, TMEM33 / Fold change vs veh, TMEM33 / RFU, WDR75 / Fold change vs veh, WDR75 / RFU, AHCTF1 / Fold change vs veh, AHCTF1 / RFU, TFRC / Fold change vs veh, TFRC / RFU, ZDHHC17 / Fold change vs veh, ZDHHC17 / RFU, NOM1 / Fold change vs veh, NOM1 / RFU, ARL8B / Fold change vs veh, ARL8B / RFU, ZBTB11 / Fold change vs veh, ZBTB11 / RFU, TAMM41 / Fold change vs veh, TAMM41 / RFU, KIAA1704 /// LOC100996395 / Fold change vs veh, KIAA1704 /// LOC100996395 / RFU, ING1 / Fold change vs veh, ING1 / RFU, TRMT61B / Fold change vs veh, TRMT61B / RFU, FUBP3 / Fold change vs veh, FUBP3 / RFU, TP53 / Fold change vs veh, TP53 / RFU, TNKS2 / Fold change vs veh, TNKS2 / RFU, ZFP14 / Fold change vs veh, ZFP14 / RFU, ACTR2 / Fold change vs veh, ACTR2 / RFU, PPP3R1 / Fold change vs veh, PPP3R1 / RFU, PIK3R1 / Fold change vs veh, PIK3R1 / RFU, HNRNPA1 / Fold change vs veh, HNRNPA1 / RFU, RNF170 / Fold change vs veh, RNF170 / RFU, ZNF28 / Fold change vs veh, ZNF28 / RFU, RNGTT / Fold change vs veh, RNGTT / RFU, OGT / Fold change vs veh, OGT / RFU, BRD1 / Fold change vs veh, BRD1 / RFU, MARS / Fold change vs veh, MARS / RFU, ZNF655 / Fold change vs veh, ZNF655 / RFU, FAHD1 / Fold change vs veh, FAHD1 / RFU, BDP1 / Fold change vs veh, BDP1 / RFU, LRRCC1 / Fold change vs veh, LRRCC1 / RFU, ARID1A / Fold change vs veh, ARID1A / RFU, ZNF146 / Fold change vs veh, ZNF146 / RFU, ZNF330 / Fold change vs veh, ZNF330 / RFU, GPN3 / Fold change vs veh, GPN3 / RFU, C9orf123 / Fold change vs veh, C9orf123 / RFU, N4BP2L2 / Fold change vs veh, N4BP2L2 / RFU, ARFIP1 / Fold change vs veh, ARFIP1 / RFU, FAM179B / Fold change vs veh, FAM179B / RFU, BCL10 / Fold change vs veh, BCL10 / RFU, UHRF1BP1L / Fold change vs veh, UHRF1BP1L / RFU, BET1 / Fold change vs veh, BET1 / RFU, CNOT2 / Fold change vs veh, CNOT2 / RFU, ZNF268 / Fold change vs veh, ZNF268 / Fold change vs veh, ZNF507 / RFU, DGCR2 / Fold change vs veh, DGCR2 / RFU, WDSUB1 / Fold change vs veh, WDSUB1 / Fold change vs veh, HSP90B1 /// MIR3652 / RFU, ADSS / Fold change vs veh, ADSS / RFU, GK / Fold change vs veh, GK / RFU, ZNF148 / Fold change vs veh, ZNF148 / RFU, TAF9 / Fold change vs veh, TAF9 / RFU, SLC1A5 / Fold change vs veh, SLC1A5 / RFU, SLMO2 / Fold change vs veh, SLMO2 / RFU, ABCC4 / Fold change vs veh, ABCC4 / RFU, LOC101060439 /// RAP1B / Fold change vs veh, LOC101060439 /// RAP1B / RFU, RFX7 / Fold change vs veh, RFX7 / RFU, GTPBP10 / Fold change vs veh, GTPBP10 / RFU, CNEP1R1 / Fold change vs veh, CNEP1R1 / RFU, BIVM-ERCC5 /// ERCC5 / Fold change vs veh, BIVM-ERCC5 /// ERCC5 / RFU, ILF3 / Fold change vs veh, ILF3 / RFU 11762660_at / Fold change /veh 11762660_at / RFU VCAN (11757783_s_at) / Fold change /veh VCAN (11757783_s_at) / RFU DDX43 (11728927_at) / Fold change /veh DDX43 (11728927_at) / RFU KRT8 (11758188_x_at) / Fold change /veh KRT8 (11758188_x_at) / RFU NKD1 (11759106_at) / Fold change /veh NKD1 (11759106_at) / RFU SRD5A1 (11742802_a_at) / Fold change /veh SRD5A1 (11742802_a_at) / RFU TPSAB1 /// TPSB2 (11721975_s_at) / Fold change /veh TPSAB1 /// TPSB2 (11721975_s_at) / RFU GSTM3 (11746129_a_at) / Fold change /veh GSTM3 (11746129_a_at) / RFU IL23R (11737362_x_at) / Fold change /veh IL23R (11737362_x_at) / RFU TMEM51 (11727254_a_at) / Fold change /veh TMEM51 (11727254_a_at) / RFU PIWIL2 (11732686_x_at) / Fold change /veh PIWIL2 (11732686_x_at) / RFU ORM1 (11744905_x_at) / Fold change /veh ORM1 (11744905_x_at) / RFU CCDC152 (11743942_at) / Fold change /veh CCDC152 (11743942_at) / RFU ECM1 (11717891_a_at) / Fold change /veh ECM1 (11717891_a_at) / RFU IL23R (11748794_a_at) / Fold change /veh IL23R (11748794_a_at) / RFU TNFAIP8L3 (11732012_x_at) / Fold change /veh TNFAIP8L3 (11732012_x_at) / RFU MBOAT4 (11741988_at) / Fold change /veh MBOAT4 (11741988_at) / RFU 11764193_at / Fold change /veh 11764193_at / RFU TMEM53 (11763286_at) / Fold change /veh TMEM53 (11763286_at) / RFU MAGEB2 (11727129_at) / Fold change /veh MAGEB2 (11727129_at) / RFU TMEM200A (11744735_a_at) / Fold change /veh TMEM200A (11744735_a_at) / RFU CCDC152 (11751479_a_at) / Fold change /veh CCDC152 (11751479_a_at) / RFU FAM211A (11726209_a_at) / Fold change /veh FAM211A (11726209_a_at) / RFU RGS16 (11746705_a_at) / Fold change /veh RGS16 (11746705_a_at) / RFU VCAN (11755009_s_at) / Fold change /veh VCAN (11755009_s_at) / RFU RHOB (11743442_s_at) / Fold change /veh RHOB (11743442_s_at) / RFU RGS16 (11720943_a_at) / Fold change /veh RGS16 (11720943_a_at) / RFU RGS16 (11720944_at) / Fold change /veh RGS16 (11720944_at) / RFU, VPS4B / Fold change vs veh, VPS4B / RFU, CREB1 / Fold change vs veh, CREB1 / RFU, DNAJC13 / Fold change vs veh, DNAJC13 / RFU, GNAQ / Fold change vs veh, GNAQ / RFU, CDK5R1 / Fold change vs veh, CDK5R1 / RFU, ZRANB3 / Fold change vs veh, ZRANB3 / RFU, CUL4A / Fold change vs veh, CUL4A / RFU, CCNY / Fold change vs veh, CCNY / RFU, UFL1 / Fold change vs veh, UFL1 / RFU, COG3 / Fold change vs veh, COG3 / RFU, DIAPH2 / Fold change vs veh, DIAPH2 / RFU, SKA2 / Fold change vs veh, SKA2 / RFU, AFF3 / Fold change vs veh, AFF3 / RFU, LMF1 / Fold change vs veh, LMF1 / RFU, IPO11 / Fold change vs veh, IPO11 / RFU, DFFB / Fold change vs veh, DFFB / RFU, FOXP1 / Fold change vs veh, FOXP1 / RFU, CARD8 / Fold change vs veh, CARD8 / RFU, STRN3 / Fold change vs veh, STRN3 / RFU, ADK / Fold change vs veh, ADK / RFU, RASSF2 / Fold change vs veh, RASSF2 / RFU, WIPF1 / Fold change vs veh, WIPF1 / RFU, LARP1B / Fold change vs veh, LARP1B / RFU, RASA1 / Fold change vs veh, RASA1 / RFU, RB1 / Fold change vs veh, RB1 / RFU, PPFIA1 / Fold change vs veh, PPFIA1 / RFU, MAT2A / Fold change vs veh, MAT2A / RFU, CCT5 / Fold change vs veh, CCT5 / RFU, WDR92 / Fold change vs veh, WDR92 / RFU, CUX1 / Fold change vs veh, CUX1 / RFU, TTC7A / Fold change vs veh, TTC7A / RFU, TMEM135 / Fold change vs veh, TMEM135 / RFU, DEPTOR / Fold change vs veh, DEPTOR / RFU, CPM / Fold change vs veh, CPM / RFU, DNAJB6 / Fold change vs veh, DNAJB6 / RFU, CACNA2D3 / Fold change vs veh, CACNA2D3 / RFU, DTX4 / Fold change vs veh, DTX4 / RFU, TFCP2 / Fold change vs veh, TFCP2 / RFU, GMCL1 /// GMCL1P1 / Fold change vs veh, GMCL1 /// GMCL1P1 / RFU, AEBP2 / Fold change vs veh, AEBP2 / RFU, SNHG1 /// SNORD22 /// SNORD25 /// SNORD26 /// SNORD27 /// SNORD28 /// SNORD29 /// SNORD31 / Fold change vs veh, SNHG1 /// SNORD22 /// SNORD25 /// SNORD26 /// SNORD27 /// SNORD28 /// SNORD29 /// SNORD31 / Fold change (Aza/veh), C12orf56 (ProbeSet 11735607_a_at) / Fold change (ACY-1035/veh), C12orf56 (ProbeSet 11735607_a_at) / Fold change (Aza/veh), FGFR1OP (ProbeSet 11751329_s_at) / Fold change (ACY-1035/veh), FGFR1OP (ProbeSet 11751329_s_at) / Fold change (Aza/veh), VPS36 (ProbeSet 11739960_a_at) / Fold change (ACY-1035/veh), VPS36 (ProbeSet 11739960_a_at) / RFU SYPL1 (11715823_x_at) / Fold change /veh SYPL1 (11715823_x_at) / RFU IGFBP7 (11715501_s_at) / Fold change /veh IGFBP7 (11715501_s_at) / RFU REEP3 (11722064_at) / Fold change /veh REEP3 (11722064_at) / RFU IGLL1 (11728026_x_at) / Fold change /veh IGLL1 (11728026_x_at): dose or concentration left out as unconfirmed.

Molecules are shown by their SMILES.

For `Nc1ccc(-c2cccs2)cc1NC(=O)c1ccc2c(c1)cc(C1CC1)n2CCN1CCOCC1` [ACY-1035], the “RFU TNFAIP8L3 (11732012_x_at)” value is recorded as 8.37 RFU.
